Source: publication PMC11676883, “Coumarins and Hesperetin Inhibit Human Respiratory Syncytial Virus Infection” (International Journal of Molecular Sciences, 2024)
Several values for one entry are separate records, joined by “and”; a condition that tells them apart may be missing. Equal entries are not always repeated. Entries after “also recorded” stand apart in the source; their conditions may differ. Where two headings read alike, the source gives them in different places.

Legend:
RSV-luc (rA2-Rluc) [1] = settings: A549 cells; for inhibition of RSV-luc (result in words): not encapsulated, luciferase RLU; for Selectivity Index (SI): from CC50 and IC50
A549 cells [2] = assay: MTT cytotoxicity assay on A549 cells; settings: A549 cells
[3] = test system: rgRSV (recombinant green fluorescent protein-expressing RSV, strain A2); assay: Inhibition test on rgRSV-infected HEp-2 cells (GFP foci); settings: 24-72 h, coumarin, esculin, umbelliferone 300 µM, esculetin 150 µM, 4-methyl 150 µM
RSV-luc (rA2-Rluc) [4] = assay: Inhibition assay of β-cyclodextrin-encapsulated compounds on differentiated HBE cultures inoculated with RSV-luc; settings: for inhibition compared with the PC (result in words) / mean difference vs positive control: encapsulated; for mean difference vs positive control / decrease in RSV infection: RSV-luc; for decrease in RSV infection: encapsulated with β-cyclodextrin, 48 h
A549 cells [5] = settings: human, 48 h
[6] = MTT cytotoxicity assay on A549 cells; settings: human
RSV-luc (rA2-Rluc) [7] = assay: microbe, parasite or virus in culture; settings: human respiratory syncytial virus, A549, read-out: IC50 (concentration inhibiting 50% viral replication)
influenza virus = test system: influenza virus; parameters: method as in PMID 20092255; settings: plaque reduction assay, cited from earlier work
[8] = MTT, 24 h, modified umbelliferones

| Molecule | viral inhibition at 24 h (RSV-luc (rA2-Rluc) [1]; RSV-luc) | viral inhibition at 48 h (RSV-luc (rA2-Rluc) [1]; RSV-luc) | inhibition of RSV-luc (result in words) (RSV-luc (rA2-Rluc) [1]) | concentration at which the cells were 80% viable (A549 cells [2]; MTT, 48 h) [µM] | inhibition of rgRSV (result in words) [3] | inhibition compared with the PC (result in words) (RSV-luc (rA2-Rluc) [4]) | concentration at which the cells were 80% viable (A549 cells [5]) [µM] | Selectivity Index (SI) (RSV-luc (rA2-Rluc) [1]) | CC50 [6] [mM] | IC50 (RSV-luc (rA2-Rluc) [7]) [mM] | also measured |
| --- | --- | --- | --- | --- | --- | --- | --- | --- | --- | --- | --- |
| 5,7-Dihydroxycoumarin-4-methylcoumarin [4-methyl esculetin] | about 40% | inhibition doubling | reduced luciferase gene expression | 75 | inhibited rgRSV effectively | no significant inhibition |  |  |  |  | IC50 (RSV-luc (rA2-Rluc) [1]; read-out: IC50 (concentration inhibiting 50% viral replication), RSV-luc): 70 µM; CC50 (A549 cells [2]; read-out: CC50 (concentration causing 50% cytotoxicity), MTT, extrapolated from CC90 and CC100): 1.04 mM |
| O=c1ccc2ccccc2o1 [Coumarin, 1,2 Benzopyrone] |  |  | did not show inhibition; also recorded: no reduction in infection |  | did not |  | 300 | 2.16 | 3.56 | 1.65 | mean difference vs positive control (RSV-luc (rA2-Rluc) [4]): 19,333,333 RLU |
| O=c1ccc2cc(O)c(O)cc2o1 [Esculetin, 6,7-Dihydroxycoumarin] | approximately 50% | 70% | reduced luciferase gene expression |  | inhibited rgRSV effectively |  | 125 | 7.56 | 1.41 | 0.18 | decrease in RSV infection (RSV-luc (rA2-Rluc) [4]): ~15%; mean difference vs positive control (RSV-luc (rA2-Rluc) [4]): 12,600,000 RLU |
| O=c1ccc2cc(O[C@@H]3O[C@H](CO)[C@@H](O)[C@H](O)[C@H]3O)c(O)cc2o1 [Esculin, 6,7-Dihydroxycoumarin-6-glucoside] |  |  | did not show inhibition | 300 | did not | no significant inhibition |  | 1.21 | 1.93 | 1.59 |  |
| COc1ccc(C2CC(=O)c3c(O)cc(O)cc3O2)cc1O (stereo not drawn) [Hesperetin, 3′,5,7-Trihydroxy-4′-methoxyflavanone] | 57% | not maintained | reduced luciferase gene expression |  |  | no significant inhibition | 300 | 7.39 | 2.67 | 0.36 | decrease in RSV infection (RSV-luc (rA2-Rluc) [4]): ~7% and 7.5% |
| CN[C@@H]1C[C@H]2O[C@@](C)([C@@H]1OC)n1c3ccccc3c3c4c(c5c6ccccc6n2c5c31)C(=O)NC4 [Staurosporine, reference compound] |  |  |  |  |  |  |  |  |  |  | cells unavailable (A549 cells [2]; Staurosporine 1 mM, 48 h): 50% |
| O=c1ccc2ccc(O)cc2o1 [Umbelliferone, 7-Hydroxycoumarin] |  |  | did not show inhibition | 300 | did not | no significant inhibition |  | 0.46 | 2.4 | 5.14 |  |
| CC(=O)Oc1ccc2ccc(=O)oc2c1 [acetylated umbelliferone, 7-Acetoxycoumarin] |  |  |  |  |  |  |  |  |  |  | concentration that resulted in >80% viable cells (A549 cells [2]; [8]): 20 µM; cytotoxicity compared (result in words) (A549 cells [2]; [8]): higher cytotoxicity than prenylated umbelliferone |
| O=c1ccc2ccc3occc3c2o1 [angelicin] |  |  |  |  |  |  |  |  |  |  | reduction of influenza virus infection (influenza virus; 20 nM): 50%; reduction of influenza virus infection (result in words) (influenza virus; 100 nM): completely |
| OC[C@H]1O[C@@H]2O[C@H]3[C@H](O)[C@@H](O)[C@@H](O[C@H]4[C@H](O)[C@@H](O)[C@@H](O[C@H]5[C@H](O)[C@@H](O)[C@@H](O[C@H]6[C@H](O)[C@@H](O)[C@@H](O[C@H]7[C@H](O)[C@@H](O)[C@@H](O[C@H]8[C@H](O)[C@@H](O)[C@@H](O[C@H]1[C@H](O)[C@H]2O)O[C@@H]8CO)O[C@@H]7CO)O[C@@H]6CO)O[C@@H]5CO)O[C@@H]4CO)O[C@@H]3CO [β-cyclodextrin] |  |  |  |  |  |  |  |  |  |  | decrease of the available cells (A549 cells [5]): about 5% |
